Laboratory results from US8609669B2, “Potassium channel modulators” (AbbVie Inc., priority 2010, dated 2013).

Columns and labels:
[1] = target: T1, KCNQ 2/3 channels (HEK293 cells stably expressing human KCNQ2 and KCNQ3 subunits) (Homo sapiens, UniProt O43525+O43526); assay: KCNQ2/3 channel activation, thallium flux FLIPR assay (BTC-AM dye); format: cell-based; settings: for Emax: HEK293, maximum response relative to response of retigabine at 10 μM (set at 100%), read-out: Max. %; for EC50: HEK293 cells expressing human KCNQ2 and KCNQ3, FLIPR thallium flux
T1 construct: expressed in transfected cells; host or cells: HEK293
Outline: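 HEK293 cells stably expressing human KCNQ2/KCNQ3 were loaded with BTC-AM and exposed to compound for 4 min in pH 7.3 gluconate buffer with ouabain. Thallium flux was triggered with 6 mM TlNO3 and 10 mM K2SO4 (stock additions) and fluorescence (ex 488, em 540 nm) recorded for 3 min. EC50 came from responses over baseline; maximal response is relative to 10 μM retigabine (100%).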

[2] = system: SNL-induced tactile allodynia; assay: Spinal nerve ligation (SNL) model of neuropathic pain; format: in vivo, Sprague-Dawley rats; settings: rat SNL, about 30 mg/kg i.p., 30 minutes or more before testing
Text: (§1) Adult male Sprague-Dawley rats (250-300 g body weight, Charles River Laboratories, Portage, Mich.) were used. Animal handling and experimental protocols were approved by the Institutional Animal Care and Use Committee (IACUC) at Abbott Laboratories. For all surgical procedures, animals were maintained under isoflurane anesthesia (4-5% to induce, 1-3% to maintain), and the incision sites were sterilized using a 10% povidone-iodine solution prior to and after surgeries.
Tactile (mechanical) allodynia was measured using calibrated von Frey filaments (Stoelting, Wood Dale, Ill.) as described in Chaplan, S. R., F. W. Bach, J. M. Pogrel, J. M. Chung and T. L. Yaksh, 1994, Quantitative assessment of tactile allodynia in the rat paw, J. Neurosci. Methods, 53, 55. Rats were placed into inverted individual plastic containers (20×12.5×20 cm) on top of a suspended wire mesh grid, and acclimated to the test chambers for 20 minutes. The von Frey filaments were presented perpendicularly to the plantar surface of the selected hind paw, and then held in this position for approximately 8 seconds with enough force to cause a slight bend in the filament. Positive responses include an abrupt withdrawal of the hind paw from the stimulus, or flinching behavior immediately following removal of the stimulus. […]

[3] = system: CCI-induced mechanical allodynia; assay: Chronic constriction injury (CCI) model of neuropathic pain (Bennett model); format: in vivo, Sprague-Dawley rats; settings: rat CCI, about 30 mg/kg i.p., 30 minutes or more before testing
Text: as §1
Tactile (mechanical) allodynia was measured using calibrated von Frey filaments (Stoelting, Wood Dale, Ill.) as described in Chaplan, S. R., F. W. Bach, J. M. Pogrel, J. M. Chung and T. L. Yaksh, 1994, Quantitative assessment of tactile allodynia in the rat paw, J. Neurosci. Methods, 53, 55. Rats were placed into inverted individual plastic containers (20×12.5×20 cm) on top of a suspended wire mesh grid, and acclimated to the test chambers for 20 minutes. The von Frey filaments were presented perpendicularly to the plantar surface of the selected hind paw, and then held in this position for approximately 8 seconds with enough force to cause a slight bend in the filament. Positive responses include an abrupt withdrawal of the hind paw from the stimulus, or flinching behavior immediately following removal of the stimulus.
A model of chronic constriction injury-induced (CCI) neuropathic pain was produced by following the method of Bennett and Xie (1988, Pain, 33, 87-107). The right common sciatic nerve was isolated at mid-thigh level, and loosely ligated by 4 chromic gut (5-0) ties separated by an interval of 1 mm. Sham rats can underwent the same procedure, but without sciatic nerve constriction. All animals can be left to recover for at least 2 weeks and no more than 5 weeks prior to testing of mechanical allodynia. Compounds were injected (i.p.) 30 minutes or more before testing.

[4] = system: Capsaicin-induced secondary mechanical hyperalgesia / tactile allodynia; assay: Capsaicin-induced secondary mechanical hypersensitivity; format: in vivo, Sprague-Dawley rats; settings: rat, about 30 mg/kg i.p., 30 minutes before testing, von Frey
Text: as §1
Rats were allowed to acclimate to the study room for 1 hour. They were then briefly restrained, and capsaicin was administered at 10 μg in 10 μL of vehicle (10% ethanol and 2-hydroxypropyl cyclodextrin) by intraplantar injection into the center of the right hind paw. Secondary mechanical hyperalgesia was measured at the heel away from the site of injection at 180 minutes following capsaicin (Joshi et al., 2006, Neuroscience 143, 587-596). Compounds were injected (i.p.) 30 minutes before testing (150 minutes post-capsaicin).
Tactile (mechanical) allodynia was measured using calibrated von Frey filaments (Stoelting, Wood Dale, Ill.) as described in Chaplan, S. R., F. W. Bach, J. M. Pogrel, J. M. Chung and T. L. Yaksh, 1994, Quantitative assessment of tactile allodynia in the rat paw, J. Neurosci. Methods, 53, 55. […]
Tactile allodynia was measured as described above.

| SMILES | Emax [1] [%] | EC50 [1] [nM] | change in paw withdrawal latency versus vehicle [2] | change in paw withdrawal latency versus vehicle [3] | change in paw withdrawal latency versus vehicle [4] |
| --- | --- | --- | --- | --- | --- |
| Cc1ccnc2c(-c3ccc(OC(F)(F)F)cc3)c(NC(=O)Cc3ccc(F)cc3)nn12 [Example 9, 2-(4-fluorophenyl)-N-{7-methyl-3-[4-(trifluoromethoxy)phenyl]pyrazolo[1,5-a]pyrimidin-2-yl}acetamide] | 119 | 500 to 1000 | statistically significant change | statistically significant change |  |
| CC(C)(C)CC(=O)Nc1nn2cccnc2c1-c1ccc(OC(F)(F)F)cc1 [Example 1, 3,3-dimethyl-N-(3-(4-(trifluoromethoxy)phenyl)pyrazolo[1,5-a]pyrimidin-2-yl)butanamide] |  |  |  | statistically significant change | statistically significant change |
| CC(C)(C)CCC(=O)Nc1nn2cccnc2c1C(C)(C)C [Example 170, N-(3-tert-butylpyrazolo[1,5-a]pyrimidin-2-yl)-4,4-dimethylpentanamide] | 124 | 1000 to 10000 |  |  |  |
| COc1ccc(CC(=O)Nc2nn3cccnc3c2C(C)(C)C)cc1 [Example 155, N-(3-tert-butylpyrazolo[1,5-a]pyrimidin-2-yl)-2-(4-methoxyphenyl)acetamide] | 116 | 1000 to 10000 |  |  |  |
| COc1ccc(CC(=O)Nc2nn3cc(C)cnc3c2-c2cccc(Cl)c2)cc1 [Example 50, N-[3-(3-chlorophenyl)-6-methylpyrazolo[1,5-a]pyrimidin-2-yl]-2-(4-methoxyphenyl)acetamide] | 100 | 1000 to 10000 |  |  |  |
| CC(C)(C)CC(=O)Nc1nn2cccnc2c1C(C)(C)C [Example 106, N-(3-tert-butylpyrazolo[1,5-a]pyrimidin-2-yl)-3,3-dimethylbutanamide] | 67 | 1000 to 10000 |  |  |  |
| Cc1ccnc2c(-c3ccc(Cl)cc3)c(NC(=O)CC(C)(C)C)nn12 [Example 40, N-[3-(4-chlorophenyl)-7-methylpyrazolo[1,5-a]pyrimidin-2-yl]-3,3-dimethylbutanamide] | 139 | 1000 to 10000 |  |  |  |
| O=C(CCC1CCCC1)Nc1nn2cccnc2c1-c1ccc(C(F)(F)F)c(F)c1 [Example 88, 3-cyclopentyl-N-{3-[3-fluoro-4-(trifluoromethyl)phenyl]pyrazolo[1,5-a]pyrimidin-2-yl}propanamide] | 65 | 500 to 1000 |  |  |  |
| Cc1ccnc2c(-c3ccc(F)cc3)c(NC(=O)Cc3ccc(F)cc3)nn12 [Example 28, 2-(4-fluorophenyl)-N-[3-(4-fluorophenyl)-7-methylpyrazolo[1,5-a]pyrimidin-2-yl]acetamide] | 120 | 1000 to 10000 |  |  |  |
| Cc1cnc2c(-c3ccc(F)c(C)c3)c(NC(=O)C[S+]([O-])C3CCCC3)nn2c1 (stereo not shown) [Example 173, 2-(cyclopentylsulfinyl)-N-[3-(4-fluoro-3-methylphenyl)-6-methylpyrazolo[1,5-a]pyrimidin-2-yl]acetamide] | 21 | > 10000 |  |  |  |

Now from value to compound, other results behind:

| Emax [1] [%] | EC50 [1] [nM] | SMILES | change in paw withdrawal latency versus vehicle [2] | change in paw withdrawal latency versus vehicle [3] | change in paw withdrawal latency versus vehicle [4] |
| --- | --- | --- | --- | --- | --- |
| 150 | 100 to 500 | O=C(CCC1CCCC1)Nc1nn2cccnc2c1-c1ccc(Cl)cc1 [Example 7, N-[3-(4-chlorophenyl)pyrazolo[1,5-a]pyrimidin-2-yl]-3-cyclopentylpropanamide] | statistically significant change |  |  |
| 116 | < 100 | Cc1cnc2c(-c3ccc(F)c(C)c3)c(NC(=O)CCC3CCCCC3)nn2c1 [Example 35, 3-cyclohexyl-N-[3-(4-fluoro-3-methylphenyl)-6-methylpyrazolo[1,5-a]pyrimidin-2-yl]propanamide] |  | statistically significant change |  |
| 152 | 100 to 500 | Cc1cc(C)n2nc(NC(=O)CCC3CCCC3)c(-c3ccc(C(F)(F)F)cc3)c2n1 [Example 61, 3-cyclopentyl-N-{5,7-dimethyl-3-[4-(trifluoromethyl)phenyl]pyrazolo[1,5-a]pyrimidin-2-yl}propanamide] |  |  |  |
| 18 | 100 to 500 | CC(C)c1c(NC(=O)CC(C)(C)C)nn2cccnc12 [Example 113, N-(3-isopropylpyrazolo[1,5-a]pyrimidin-2-yl)-3,3-dimethylbutanamide] |  |  |  |
| 117 | 100 to 500 | Cc1ccnc2c(-c3cccc(C(F)(F)F)c3)c(NC(=O)Cc3ccc(F)cc3)nn12 [Example 67, 2-(4-fluorophenyl)-N-{7-methyl-3-[3-(trifluoromethyl)phenyl]pyrazolo[1,5-a]pyrimidin-2-yl}acetamide] |  |  |  |
| 131 | 100 to 500 | Cc1cnc2c(-c3ccccc3)c(NC(=O)Cc3ccc(Cl)cc3)nn2c1 [Example 93, 2-(4-chlorophenyl)-N-(6-methyl-3-phenylpyrazolo[1,5-a]pyrimidin-2-yl)acetamide] |  |  |  |
| 99 | < 100 | O=C(CCC1CCCCC1)Nc1nn2cccnc2c1-c1ccc(Cl)cc1 [Example 157, N-[3-(4-chlorophenyl)pyrazolo[1,5-a]pyrimidin-2-yl]-3-cyclohexylpropanamide] |  |  |  |
| 239 | 100 to 500 | Cc1cnc2c(-c3ccc(C(F)(F)F)c(F)c3)c(NC(=O)CC3CCCC3)nn2c1 [Example 87, 2-cyclopentyl-N-{3-[3-fluoro-4-(trifluoromethyl)phenyl]-6-methylpyrazolo[1,5-a]pyrimidin-2-yl}acetamide] |  |  |  |
